69 molecules from PubChem BioAssay AID1159536 (DiRusso Lab, Biochemistry Department, University of Nebraska, 2015) can be followed below.

Results filed as inconclusive are left out. Activity calls are given as the source filed them. How the calls were made is not given here.

Assay [1] can be described thus: algal triacylglycerol accumulation inducers, dose response, qHTS, Chlamydomonas reinhardtii (AID 1159536). The conditions noted are these: Chlamydomonas reinhardtii, Nile Red lipid fluorescence, 72 h; at 30 µM (top of the series). On the technique in general: In qHTS, concentration-response curves come from the screen itself.
For assay [2], the system named is Chlamydomonas reinhardtii, Nile Red lipid fluorescence, 72 h. The description is as above.

Consider `COc1cccc(CN2CCN(C(=O)c3cc(OC)c(OC)c(OC)c3)CC2)c1OC`, for which the fold change vs untreated, higher = more lipid in assay [1] was 1.75 (inactive).
For `O=C(NC1CCN(Cc2ccccc2)CC1)c1ccc(Cl)cc1Cl`, the fold change vs untreated, higher = more lipid in assay [1] is 12.2.
Same read-out and setting: for `CC(C)(C)c1ccc(OCCCCN2CCOCC2)cc1` the value was 3.88.
The same measure, in the same setting: under `O=C(O)C1CCN(C(=O)c2ccc(F)cc2)CC1` stands 1.24 (inactive); under `Cc1cc(Cl)c(OCCn2ccnc2)c(Br)c1`, 5.38; under `CCC1CCCCN1C(=O)c1ccc(Cl)cc1[N+](=O)[O-]` (centres undefined), 1.87 (inactive).
Consider `Cc1ccc(Cn2cnc3c(cnn3-c3ccccc3)c2=O)c(C)c1`, for which the fold change vs untreated, higher = more lipid in assay [1] was 3 (inactive).
Take `Cc1sc(NC(=O)c2cccs2)c(C(=O)O)c1C`: in assay [1], the fold change vs untreated, higher = more lipid was 1.38 (inactive).
Same read-out and setting: for `Cc1c(C(=O)Nc2ccccc2C(=O)NCc2ccccc2)cccc1[N+](=O)[O-]` the value was 2.77 (inactive); for `COc1ccc(S(=O)(=O)N(CC(=O)NC(C)C)c2cc(C)cc(C)c2)cc1OC`, 1.07 (inactive); for `Cc1ccc(CN2CCC(C(=O)NCc3ccccc3Cl)CC2)cc1`, 15.2.
On the same count and under the same terms, under `Cc1ccc(N2CCN(CCc3ccccc3)CC2)cc1` stands 8.09.
The same measure, in the same setting: under `CC(=O)Nc1ccc(OCC(=O)Nc2cc(Cl)cc(Cl)c2)cc1` stands 2.48 (inactive); under `O=C(Nc1ccccc1C(=O)NCc1ccccc1)c1ccc([N+](=O)[O-])cc1`, 2.49 (inactive).
Regarding `Fc1ccc(N2CCN(CCc3ccccc3)CC2)cc1`, in assay [1], the fold change vs untreated, higher = more lipid was 9.42.
With `CCN1CCN(C2CCC(C(C)(C)C)CC2)CC1` (centres undefined), in assay [1], the fold change vs untreated, higher = more lipid is 2.66 (inactive).
Consider `COc1cccc(N2CCN(Cc3ccc([N+](=O)[O-])cc3)CC2)c1`, for which, in assay [2], the EC50 (usually the midpoint of the concentration-response curve) was 0.667 µM.
The same measure, in the same setting: under `CC(C)(C)c1csc(NC(=O)c2ccc(N3CCOCC3)c([N+](=O)[O-])c2)n1` stands 2.66 µM.
With `COc1cc(-c2ccc(NC(=O)c3ccco3)c(OC)c2)ccc1NC(=O)c1ccco1`, in assay [1], the fold change vs untreated, higher = more lipid is 1.4 (inactive).
For `CN1CCC(N(C)Cc2cc(Cl)ccc2O)CC1`, the EC50 in assay [2] is 2.56 µM.
As to `Cc1ccsc1/C=C(\C#N)c1nc(-c2ccc([N+](=O)[O-])cc2)cs1`, the EC50 in assay [2] was 14.9 µM (inactive).
The same measure, in the same setting: under `C/C=C(\C)CN1CCN(C/C=C/c2ccccc2)CC1` stands 1.28 µM; under `COc1ccccc1C(=O)N1CCN(C(=O)C(c2ccccc2)c2ccccc2)CC1`, 5.62 µM (inactive); under `COc1cc(C(=O)Nc2nc3c(s2)CCCC3)cc(OC)c1OC`, 0.379 µM (inactive).
Take `C(#CC12CC3CC(CC(C3)C1)C2)CN1CCOCC1`: the EC50 in assay [2] was 3.27 µM.
Regarding `COc1cc(NC(=O)C(Cl)Cl)c(OC)cc1Cl`, in assay [1], the fold change vs untreated, higher = more lipid is 1.42 (inactive).
Same read-out and setting: for `Cc1ccc(OCCCCN2CCCC2)c(C)c1` the value was 6.28.
As to `CC(C)NCC(=O)NC12CC3CC(CC(C3)C1)C2`, the EC50 in assay [2] was 0.638 µM.
As for `COc1ccc(CN(C)C2CCCCC2)cc1C`, in assay [2], the EC50 was 2.69 µM.
Still for that read-out and setting: for `CCC(C)N1CCN(Cc2ccc([N+](=O)[O-])cc2)CC1` (centres undefined) the value was 10.5 µM; for `CC(C)(C)c1ccc(OCC(O)CN2CCN(CCO)CC2)cc1` (centres undefined), 1.29 µM; for `COc1ccc(CNCc2ccc(C)cc2)c(OC)c1`, 9.94 µM (inactive).
As to `Fc1ccc(N2CCN(Cc3ccsc3)CC2)cc1`, the EC50 in assay [2] was 8.16 µM.
With `COc1ccccc1Cn1c(C(C)O)nc2ccccc21` (centres undefined), in assay [1], the fold change vs untreated, higher = more lipid was 0.95 (inactive).
Regarding `Clc1ccc(OCCCCN2CCOCC2)c(Br)c1`, the EC50 in assay [2] is 0.854 µM.
Still for that read-out and setting: for `Cc1cc(OCC(O)CN2CCN(CCO)CC2)ccc1C(C)C` (centres undefined) the value was 0.81 µM; for `CCc1cccc(OCC(=O)Nc2cc(OC)c(OC)cc2C(=O)O)c1`, 1.38 µM.
For the molecule `Cc1cc(Br)ccc1OCC(=O)NCc1ccc2c(c1)OCO2`, the fold change vs untreated, higher = more lipid in assay [1] was 1.4 (inactive).
Consider `CC(=O)N(C1=C(Nc2ccccc2)C(=O)c2ccccc2C1=O)c1ccccc1`, for which, in assay [2], the EC50 is 15.2 µM (inactive).
Take `Cc1c(N/C=C/C(=O)c2cccs2)c(=O)n(-c2ccccc2)n1C`: in assay [1], the fold change vs untreated, higher = more lipid was 1.42 (inactive).
In the case of `CN1CCC(N(C)Cc2cccc(Oc3ccccc3)c2)CC1`, the EC50 in assay [2] was 10.1 µM.
The same measure, in the same setting: under `COc1ccc(CN2CCN(CC3CC4C=CC3C4)CC2)cc1OC` (centres undefined) stands 3.91 µM.
With `CCC(C)c1ccccc1OCCCCN1CCCC1` (centres undefined), the concentration for a half-maximal effect (EC50) in assay [2] was 2.68 µM.
With `Cc1ccc(C(=O)Nc2ccccc2C(=O)NC(C)C)cc1[N+](=O)[O-]`, the EC50 in assay [2] was 0.635 µM (inactive).
`C1=CC2CC1CC2CN1CCN(Cc2ccccc2)CC1` (centres undefined): the EC50 in assay [2] was 6.19 µM.
The same measure, in the same setting: under `Cc1ccc(C(=O)Nc2ccc3oc(-c4ccncc4)nc3c2)cc1C` stands 1.6 µM; under `Cc1ccc2nc(SCc3ccccc3)c(C=O)c(=O)n2c1`, 4.11 µM.
On the same count and under the same terms, under `O=C(Nc1cccnc1)c1ccc(S(=O)(=O)c2ccc(Cl)cc2)cc1` stands 6.72 µM (inactive).
Same read-out and setting: under `Cc1ccc(OCCCCN2CCCC2)c(Br)c1` stands 2.65 µM; under `Cc1cc(Br)ccc1OCCCN1CCN(C)CC1`, 2.18 µM.
For the molecule `CN(CC(O)COc1ccc(F)cc1)C1CCCCC1` (centres undefined), the EC50 in assay [2] is 11.2 µM.
On the same count and under the same terms, for `O=C(CN1CCCCC1)NC12CC3CC(CC(C3)C1)C2` the value was 3.47 µM.
On the same count and under the same terms, under `Fc1ccc(CN2CCN(c3ccccc3Cl)CC2)cc1` stands 1.4 µM.
With `COc1ccccc1N1CCN(C2CCN(Cc3cccc(C)c3)CC2)CC1`, in assay [2], the EC50 was 10.4 µM.
On the same count and under the same terms, under `Brc1ccc(CN2CCN(c3ccccc3)CC2)cc1` stands 22 µM; under `CN1CCN(Cc2ccc(-c3ccccc3Cl)o2)CC1`, 3.34 µM.
Turning to `C=CCNC(=O)C(C)N(c1ccc(OCC)cc1)S(C)(=O)=O` (centres undefined), the fold change vs untreated, higher = more lipid in assay [1] is 1.69 (inactive).
`CCN(CC)CC(=O)Nc1ccc(Br)cc1`: the EC50 in assay [2] is 10.6 µM.
On the same count and under the same terms, under `COc1cccc(CN2CCN(Cc3ccc(F)cc3)CC2)c1OC` stands 0.651 µM.
Take `Cc1cc(C(C)(C)C)ccc1OCCOCCN1CCN(C)CC1`: the EC50 in assay [2] was 0.566 µM (inactive).
In the case of `Cc1cc(Cl)c(OCCOCCN2CCN(C)CC2)c(Br)c1`, the EC50 in assay [2] is 3.1 µM.
On the same count and under the same terms, under `C=CCc1ccccc1OCC(O)CN(C)C1CCCCC1` (centres undefined) stands 4.88 µM; under `CN1CCN(CCCOc2cc(Cl)ccc2Cl)CC1`, 14.1 µM; under `c1ccc(CN2CCN(C3CC4CCC3C4)CC2)cc1` (centres undefined), 10.1 µM.
The same measure, in the same setting: for `Clc1ccc(Cl)c(OCCCCN2CCNCC2)c1` the value was 5.34 µM.
Still for that read-out and setting: for `CN1CCCN(Cc2cccc(Oc3ccccc3)c2)CC1` the value was 10.1 µM.
With `CCc1ccc(CN2CCN(c3ccccc3C)CC2)cc1`, the EC50 in assay [2] was 1.33 µM (inactive).
Same read-out and setting: under `CC1CCN(S(=O)(=O)c2ccc(NC(=O)c3cccc([N+](=O)[O-])c3)cc2)CC1` stands 2.7 µM; under `Fc1ccccc1N1CCN(CC2CCCCC2)CC1`, 10.5 µM.
